Data reported in US20250066388A1, “1,3,4,7-TETRAHYDRO-2H-PYRROLO[3',2':5,6]PYRIDO[2,3-B][1,4]OXAZEPINE BCL-2 INHIBITORS” (AbbVie Inc., priority 2022, published 2025).

What was measured:
[1] = molecular target: Bcl-2 protein (Homo sapiens (Human), UniProt P10415); assay: TR-FRET binding assay, Bcl-2; conditions: F-Bak peptide probe, GST-Bcl-2
Procedure: (§1) Determination of the utility of compounds having Formula (I) or Formula (II) as binders to and inhibitors of anti-apoptotic Bcl-2 proteins was performed using the Time Resolved-Fluorescence Resonance Energy Transfer (TR-FRET) Assay. Tb-anti-GST antibody was purchased from Invitrogen (Catalog No. PV4216).
A Bcl-2 human encoding sequence was cloned into a pET41A vector (Novagen). The protein was expressed with E. coli. BL21(DE3)-T1R strain in OETB autoinduction medium at 30° C. for 25 hours. The cell pellets were resuspended in lysis buffer (50 mM Tris, 140 mM NaCl, 1 mM DTT, 10% Glycerol, 2 mM MgCl2, pH 7.3) and lysed with Microfluidizer. The Bcl-2 protein in clarified cell-lysate was purified with affinity chromatography (GST and Ni-NTA). The eluate was loaded onto a Superdex 75 column and further purified with a Q Sepharose column. The protein was purified on a phenyl hydrophobic interaction column and dialyzed in the storage buffer (50 mM Tris, 50 mM NaCl, 2 mM DTT, pH 7.5) and stored at −80° C.
(§2) […] of a protein (Bcl-2 or Bcl-xL)/probe/antibody mixture pre-equilibrated for one hour in assay buffer was added to each well at final concentrations listed in Table 6 below.
(§3) The samples were then mixed on a shaker for 1 minute and equilibrated for an additional 3 hours at room temperature. For each assay plate, a probe/antibody and protein/antibody/probe mixture were included as a negative and a positive control, respectively. Fluorescence was measured on the Envision (Perkin Elmer) using a 340/35 nm excitation filter and 520/525 (F-Bak) and 495/510 nm (Tb-labeled anti-GST antibody) emission filters. Inhibition constants (Ki) were determined using Wang's equation (Wang FEBS Lett. 1995, 360, 111-114). The TR-FRET assay can be performed in the presence of varying concentrations of human serum (HS) to determine apparent half maximal inhibitory concentration (IC50) after HS protein binding.
(§4) Inhibition constants were determined using Wang's equation (Wang FEBS Lett. 1995, 360:111-4).

[2] = molecular target: Bcl-xL protein (Homo sapiens (Human), UniProt Q07817); assay: TR-FRET binding assay, Bcl-xL; conditions: F-Bak peptide probe
Chain of Bcl-xL protein (Q07817 other isoform, or with tags, fused parts or gaps): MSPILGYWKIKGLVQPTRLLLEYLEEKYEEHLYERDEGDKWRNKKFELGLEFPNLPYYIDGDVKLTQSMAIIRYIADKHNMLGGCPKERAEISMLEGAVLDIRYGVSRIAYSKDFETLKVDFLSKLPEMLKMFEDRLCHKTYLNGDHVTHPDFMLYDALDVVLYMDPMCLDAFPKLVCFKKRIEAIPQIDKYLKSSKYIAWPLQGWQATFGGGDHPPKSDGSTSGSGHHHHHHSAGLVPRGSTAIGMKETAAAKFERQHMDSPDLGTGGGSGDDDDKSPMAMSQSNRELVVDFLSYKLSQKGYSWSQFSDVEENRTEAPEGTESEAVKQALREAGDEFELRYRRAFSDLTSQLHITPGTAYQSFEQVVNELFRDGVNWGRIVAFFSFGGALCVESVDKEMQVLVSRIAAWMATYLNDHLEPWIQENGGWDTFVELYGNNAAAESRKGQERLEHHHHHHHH
Procedure: as §1
A human Bcl-xL encoding sequence was cloned into a pET41A vector. The protein was expressed with E. coli. BL21(DE3)-T1R strain in OETB autoinduction medium at 30° C. for 25 hours. The cell pellets were resuspended in lysis buffer (50 mM Tris, 140 mM NaCl, 1 mM DTT, 10% Glycerol, 0.1% Triton X-100, pH 7.5) and lysed with Microfluidizer. The Bcl-xL protein in clarified cell-lysate was purified with GST affinity chromatography. The eluate was dialyzed in the storage buffer (1×PBS, 10% Glycerol, 2 mM DTT, 1 mM Sodium Azide, pH 7.4) and stored at −80° C.
as §2, §3, §4

Chain of Bcl-2 protein (P10415 other isoform, or with tags, fused parts or gaps): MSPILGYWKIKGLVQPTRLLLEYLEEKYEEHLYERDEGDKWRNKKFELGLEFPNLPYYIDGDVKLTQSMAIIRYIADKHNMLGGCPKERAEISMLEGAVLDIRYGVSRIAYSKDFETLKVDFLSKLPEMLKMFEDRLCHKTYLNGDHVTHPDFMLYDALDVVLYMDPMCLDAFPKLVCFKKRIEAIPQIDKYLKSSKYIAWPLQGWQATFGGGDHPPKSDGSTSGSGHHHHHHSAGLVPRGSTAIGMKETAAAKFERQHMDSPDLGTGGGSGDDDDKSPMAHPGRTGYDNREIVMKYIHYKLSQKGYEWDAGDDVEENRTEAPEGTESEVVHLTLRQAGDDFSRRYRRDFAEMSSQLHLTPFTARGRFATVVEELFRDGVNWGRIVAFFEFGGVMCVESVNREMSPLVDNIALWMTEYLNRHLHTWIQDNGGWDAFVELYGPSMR

| SMILES | Ki [1] | Ki [2] |
| --- | --- | --- |
| CC1(C)CC(c2ccc(Cl)cc2)=C2CN3CCN(c4ccc(C(=O)NS(=O)(=O)c5cnc(OCC6(F)CCN(C7COC7)CC6)c(Cl)c5)c(N5CCCOc6nc7[nH]ccc7cc65)c4)C[C@H]3COCCCO[C@@H]2C1 [Example 4, N-((5-chloro-6-((4-fluoro-1-(oxetan-3-yl)piperidin-4-yl)methoxy)pyridin-3-yl)sulfonyl)-4-((4aS,10aR)-14-(4-chlorophenyl)-12,12-dimethyl-1,2,4a,5,8,9,10a,11,13,15-decahydro-7H,12H-benzo[f]pyrazino[2,1-c][1,8]dioxa[4]azacycloundecin-3(4H)-yl)-2-(3,4-dihydro-2H-pyrrolo[3′,2′:5,6]pyrido[2,3-b][1,4]oxazepin-1(7H)-yl)benzamide] | 0.28 nM | 18.8 nM |
| CO[C@H]1CC[C@H](CNc2ccc(S(=O)(=O)NC(=O)c3ccc(N4CCN5CC6=C(c7ccc(Cl)cc7)CC(C)(C)C[C@H]6OCCCOC[C@@H]5C4)cc3N3CCCOc4nc5[nH]ccc5cc43)cc2[N+](=O)[O-])CC1 [Example 5, 4-((4aS,10aR)-14-(4-chlorophenyl)-12,12-dimethyl-1,2,4a,5,8,9,10a,11,13,15-decahydro-7H,12H-benzo[f]pyrazino[2,1-c][1,8]dioxa[4]azacycloundecin-3(4H)-yl)-2-(3,4-dihydro-2H-pyrrolo[3′,2′:5,6]pyrido[2,3-b][1,4]oxazepin-1(7H)-yl)-N-((4-((((1r,4r)-4-methoxycyclohexyl)methyl)amino)-3-nitrophenyl)sulfonyl)benzamide] | 0.149 nM | 20 nM |
| CC1(C)CC(c2ccc(Cl)cc2)=C2CN3CCN(c4ccc(C(=O)NS(=O)(=O)c5cnc(OCC6(F)CCOCC6)c(Cl)c5)c(N5CCCOc6nc7[nH]ccc7cc65)c4)C[C@H]3COCCCO[C@@H]2C1 [Example 7, N-((5-chloro-6-((4-fluorotetrahydro-2H-pyran-4-yl)methoxy)pyridin-3-yl)sulfonyl)-4-((4aS,10aR)-14-(4-chlorophenyl)-12,12-dimethyl-1,2,4a,5,8,9,10a,11,13,15-decahydro-7H,12H-benzo[f]pyrazino[2,1-c][1,8]dioxa[4]azacycloundecin-3(4H)-yl)-2-(3,4-dihydro-2H-pyrrolo[3′,2′:5,6]pyrido[2,3-b][1,4]oxazepin-1(7H)-yl)benzamide] | 0.0503 nM | > 661 nM |
| CC1(C)CC(c2ccc(Cl)cc2)=C2CN3CCN(c4ccc(C(=O)NS(=O)(=O)c5ccc(NC[C@H]6C[C@@](O)(CF)C6)c([N+](=O)[O-])c5)c(N5CCCOc6nc7[nH]ccc7cc65)c4)C[C@H]3COCCCO[C@@H]2C1 [Example 8, 4-((4aS,10aR)-14-(4-chlorophenyl)-12,12-dimethyl-1,2,4a,5,8,9,10a,11,13,15-decahydro-7H,12H-benzo[f]pyrazino[2,1-c][1,8]dioxa[4]azacycloundecin-3(4H)-yl)-2-(3,4-dihydro-2H-pyrrolo[3′,2′:5,6]pyrido[2,3-b][1,4]oxazepin-1(7H)-yl)-N-((4-((((1r,3r)-3-(fluoromethyl)-3-hydroxycyclobutyl)methyl)amino)-3-nitrophenyl)sulfonyl)benzamide] | 0.448 nM | 0.125 nM |
| CC1(C)CC(c2ccc(Cl)cc2)=C2CN3CCN(c4ccc(C(=O)NS(=O)(=O)c5ccc(OCC6(F)CCN(C7COC7)CC6)c(Cl)c5)c(N5CCCOc6nc7[nH]ccc7cc65)c4)C[C@H]3COCCCO[C@@H]2C1 [Example 9, N-(3-chloro-4-{[4-fluoro-1-(oxetan-3-yl)piperidin-4-yl]methoxy}benzene-1-sulfonyl)-4-[(4aS,10aR)-14-(4-chlorophenyl)-12,12-dimethyl-1,2,4a,5,8,9,11,12,13,15-decahydro-7H,10aH-pyrazino[2,1-g][1,5,8]benzodioxazacycloundecin-3(4H)-yl]-2-(3,4-dihydro-2H-pyrrolo[3′,2′:5,6]pyrido[2,3-b][1,4]oxazepin-1(7H)-yl)benzamide] | 0.267 nM | 20.6 nM |
| CC1(C)CC(c2ccc(Cl)cc2)=C2CN3CCN(c4ccc(C(=O)NS(=O)(=O)c5cnc(OC[C@]6(F)CC[C@@H](N7CCOCC7)CC6)c(Cl)c5)c(N5CCCOc6nc7[nH]ccc7cc65)c4)C[C@H]3COCCCO[C@@H]2C1 [Example 10, N-((5-chloro-6-(((1s,4s)-1-fluoro-4-morpholinocyclohexyl)methoxy)pyridin-3-yl)sulfonyl)-4-((4aS,10aR)-14-(4-chlorophenyl)-12,12-dimethyl-1,2,4a,5,8,9,10a,11,13,15-decahydro-7H,12H-benzo[f]pyrazino[2,1-c][1,8]dioxa[4]azacycloundecin-3(4H)-yl)-2-(3,4-dihydro-2H-pyrrolo[3′,2′:5,6]pyrido[2,3-b][1,4]oxazepin-1(7H)-yl)benzamide] | 0.66 nM | 5.91 nM |
| CC1(C)CC(c2ccc(Cl)cc2)=C2CN3CCN(c4ccc(C(=O)NS(=O)(=O)c5cnc(OC[C@]6(F)CC[C@H](N7CCOCC7)CC6)c(Cl)c5)c(N5CCCOc6nc7[nH]ccc7cc65)c4)C[C@H]3COCCCO[C@@H]2C1 [Example 11, N-((5-chloro-6-(((1r,4r)-1-fluoro-4-morpholinocyclohexyl)methoxy)pyridin-3-yl)sulfonyl)-4-((4aS,10aR)-14-(4-chlorophenyl)-12,12-dimethyl-1,2,4a,5,8,9,10a,11,13,15-decahydro-7H,12H-benzo[f]pyrazino[2,1-c][1,8]dioxa[4]azacycloundecin-3(4H)-yl)-2-(3,4-dihydro-2H-pyrrolo[3′,2′:5,6]pyrido[2,3-b][1,4]oxazepin-1(7H)-yl)benzamide] | 0.936 nM | 17.3 nM |
| CO[C@H]1CC[C@H](CNc2ccc(S(=O)(=O)NC(=O)c3ccc(N4CCN5CC6=C(c7ccc(Cl)cc7)CC(C)(C)C[C@H]6OCCCOC[C@@H]5C4)cc3N3CCCOc4nc5[nH]ccc5cc43)cc2[N+](=O)[O-])OC1 [Example 13, 4-((4aS,10aR)-14-(4-chlorophenyl)-12,12-dimethyl-1,2,4a,5,8,9,10a,11,13,15-decahydro-7H,12H-benzo[f]pyrazino[2,1-c][1,8]dioxa[4]azacycloundecin-3(4H)-yl)-2-(3,4-dihydro-2H-pyrrolo[3′,2′:5,6]pyrido[2,3-b][1,4]oxazepin-1(7H)-yl)-N-((4-((((2R,5S)-5-methoxytetrahydro-2H-pyran-2-yl)methyl)amino)-3-nitrophenyl)sulfonyl)benzamide] | 0.35 nM | 6.8 nM |
| CC1(C)CC(c2ccc(Cl)cc2)=C2CN3CCN(c4ccc(C(=O)NS(=O)(=O)c5ccc(NC[C@H]6C[C@](O)(CF)C6)c([N+](=O)[O-])c5)c(N5CCCOc6nc7[nH]ccc7cc65)c4)C[C@H]3COCCCO[C@@H]2C1 [Example 16, 4-((4aS,10aR)-14-(4-chlorophenyl)-12,12-dimethyl-1,2,4a,5,8,9,10a,11,13,15-decahydro-7H,12H-benzo[f]pyrazino[2,1-c][1,8]dioxa[4]azacycloundecin-3(4H)-yl)-2-(3,4-dihydro-2H-pyrrolo[3′,2′:5,6]pyrido[2,3-b][1,4]oxazepin-1(7H)-yl)-N-((4-((((1s,3s)-3-(fluoromethyl)-3-hydroxycyclobutyl)methyl)amino)-3-nitrophenyl)sulfonyl)benzamide] | 0.297 nM | 15 nM |
| COCCN1CCC(F)(COc2ncc(S(=O)(=O)NC(=O)c3ccc(N4CCN5CC6=C(c7ccc(Cl)cc7)CC(C)(C)C[C@H]6OCCCOC[C@@H]5C4)cc3N3CCCOc4nc5[nH]ccc5cc43)cc2Cl)CC1 [Example 22, N-((5-chloro-6-((4-fluoro-1-(2-methoxyethyl)piperidin-4-yl)methoxy)pyridin-3-yl)sulfonyl)-4-((4aS,10aR)-14-(4-chlorophenyl)-12,12-dimethyl-1,2,4a,5,8,9,10a,11,13,15-decahydro-7H,12H-benzo[f]pyrazino[2,1-c][1,8]dioxa[4]azacycloundecin-3(4H)-yl)-2-(3,4-dihydro-2H-pyrrolo[3′,2′:5,6]pyrido[2,3-b][1,4]oxazepin-1(7H)-yl)benzamide] | 0.339 nM | 14.7 nM |
